# Measurements from patent publication US20190071416A1, “COMPOUNDS FOR TREATMENT OF CANCER AND EPIGENETICS” (Agency For Science, Technology and Research, priority 2015, published 2019).
# pIC50: −log10 of the molar value.
# Target: T1, SMYD3 (Homo sapiens, UniProt Q9H7B4)
# T1 sequence (Q9H7B4 1-428): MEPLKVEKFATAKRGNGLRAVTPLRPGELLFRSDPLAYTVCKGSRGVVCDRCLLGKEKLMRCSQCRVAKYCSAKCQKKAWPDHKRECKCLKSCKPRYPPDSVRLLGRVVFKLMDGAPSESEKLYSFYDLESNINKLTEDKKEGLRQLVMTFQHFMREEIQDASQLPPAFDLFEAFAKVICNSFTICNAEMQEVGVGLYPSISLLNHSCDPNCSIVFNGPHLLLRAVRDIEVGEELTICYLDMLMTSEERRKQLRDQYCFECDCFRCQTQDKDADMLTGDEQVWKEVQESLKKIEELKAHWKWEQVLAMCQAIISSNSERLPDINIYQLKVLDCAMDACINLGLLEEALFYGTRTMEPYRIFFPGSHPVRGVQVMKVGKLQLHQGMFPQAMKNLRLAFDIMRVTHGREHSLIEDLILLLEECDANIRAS
# Assay: SMYD3 biochemical assay (MTase-Glo, MAP3K2 peptide substrate)
# Conditions: Table 3; MTase assay, MAP3K2 peptide substrate; read-out: IC50
# Method: A SMYD3 enzymatic assay was developed using Promega's Methyltransferase-Glo™ reagents. In the assay, SMYD3 catalyzes the methylation of the MAP3K2 peptide substrate by transferring a methyl group from SAM to MAP3K2 peptide and further converts the SAM to SAH. The SMYD3 methyltransferase activity is measured based on the amount of SAH produced from the reaction through the use of coupling enzymes that convert the SAH to ATP. The MTase-Glo detection solution then catalyzes the formation of light from ATP.
# A final concentration of 1.0 μM and 10 μM SAM and MAP3K2 peptide were added and further incubated for 30 min at room temperature before adding the MTase Glo and detection reagent. Reaction signals were detected using microplate readers on luminescent mode (Safire Tecan). The IC50 was determined by non-linear regression, using GraphPad Prism version, 5.03.
row,Structure (SMILES),pIC50
1,"CCCOC(=O)N1CCN(C(=O)c2ccc3c(Cl)c4c(nc3c2)CCCC4)C(C)C1C (stereo not drawn) [A033, Propyl 4-(9-chloro-5,6,7,8-tetrahydroacridine-3-carbonyl)-2,3-dimethylpiperazine-1-carboxylate]",5.74
2,"CCCOC(=O)N1CCN(C(=O)c2ccc3c(Cl)c4c(nc3c2)CCCC4)CC12CC2 [A036, Propyl 7-(9-chloro-5,6,7,8-tetrahydroacridine-3-carbonyl)-4,7-diazaspiro[2.5]octane-4-carboxylate]",5.17
3,"CCCOC(=O)N1CCN(C(=O)c2ccc3c(Cl)c4c(nc3c2)CCCC4)C2(CC2)C1 [A037, Propyl 4-(9-chloro-5,6,7,8-tetrahydroacridine-3-carbonyl)-4,7-diazaspiro[2.5]octane-7-carboxylate]",5.08
4,"Cc1cc(C(=O)N2C3CCCC2CN(C(=O)c2ccc4c(Cl)c5c(nc4c2)CCCC5)C3)no1 [A039, (9-Chloro-5,6,7,8-tetrahydroacridin-3-yl)(9-(5-methylisoxazole-3-carbonyl)-3,9-diazabicyclo[3.3.1]nonan-3-yl)methanone]",5.89
5,"Cc1cc(C(=O)N2C3CCCC2CN(C(=O)c2ccc4c(Cl)c5c(nc4c2)CCCC5)C3)n[nH]1 [A040, (9-Chloro-5,6,7,8-tetrahydroacridin-3-yl)(9-(5-methyl-1H-pyrazole-3-carbonyl)-3,9-diazabicyclo[3.3.1]nonan-3-yl)methanone]",4.96
6,"CCCCOC(=O)N1C2CCCC1CN(C(=O)c1ccc3c(Cl)c4c(nc3c1)CCCC4)C2 [A041, Butyl 3-(9-chloro-5,6,7,8-tetrahydroacridine-3-carbonyl)-3,9-diazabicyclo[3.3.1]nonane-9-carboxylate]",6.59
7,"CCCOC(=O)N1CC(C)N(C(=O)c2ccc3c(Cl)c4c(nc3c2)CCCC4)C(C)C1 (stereo not drawn) [A043, Propyl 4-(9-chloro-5,6,7,8-tetrahydroacridine-3-carbonyl)-3,5-dimethylpiperazine-1-carboxylate]",6.26
8,"C=CCCC(=O)N1CCN(C(=O)c2ccc3c(Cl)c4c(nc3c2)CCCC4)CC1 [A050, 1-(4-(9-Chloro-5,6,7,8-tetrahydroacridine-3-carbonyl)piperazin-1-yl)pent-4-en-1-one]",5.46
9,"CCCOC(=O)N1CCN(C(=O)c2ccc3c(Cl)c4c(nc3c2)CCCC4)C(C(=O)OC)C1 (stereo not drawn) [A051, 3-Methyl 1-propyl 4-(9-chloro-5,6,7,8-tetrahydroacridine-3-carbonyl)piperazine-1,3-dicarboxylate]",6.19
10,"CCCOC(=O)N1CCN(C(=O)c2ccc3c(Cl)c4c(nc3c2)CCCC4)CC1COC(C)=O (stereo not drawn) [A052, Propyl 2-(acetoxymethyl)-4-(9-chloro-5,6,7,8-tetrahydroacridine-3-carbonyl)piperazine-1-carboxylate]",5.74
11,"CCCOC(=O)N1CCN(C(=O)c2ccc3c(Cl)c4c(nc3c2)CCCC4)CC1COC(=O)C(C)C (stereo not drawn) [A054, Propyl 4-(9-chloro-5,6,7,8-tetrahydroacridine-3-carbonyl)-2-((isobutyryloxy)methyl)piperazine-1-carboxylate]",5.28
12,"CCCOC(=O)N1CCN(C(=O)c2ccc3c(Cl)c4c(nc3c2)CCCC4)CC1COC(=O)CCOC (stereo not drawn) [A055, Propyl 4-(9-chloro-5,6,7,8-tetrahydroacridine-3-carbonyl)-2-(((3-methoxypropanoyl)oxy)methyl)-piperazine-1-carboxylate]",5.62
13,"CCCOC(=O)N1CCN(C(=O)c2ccc3c(Cl)c4c(nc3c2)CCCC4)CC1CCO (stereo not drawn) [A060, Propyl 4-(9-chloro-5,6,7,8-tetrahydroacridine-3-carbonyl)-2-(2-hydroxyethyl)piperazine-1-carboxylate]",5.57
14,"CCCOC(=O)N1CCN(C(=O)c2ccc3c(Cl)c4c(nc3c2)CCCC4)CC1COC(=O)CCC (stereo not drawn) [A061, Propyl 2-((butyryloxy)methyl)-4-(9-chloro-5,6,7,8-tetrahydroacridine-3-carbonyl)piperazine-1-carboxylate]",5.39
15,"CCCOC(=O)N1CCN(C(=O)c2ccc3c(Cl)c4c(nc3c2)CCC(CC(=O)OC)C4)C[C@@H]1C (stereo partly drawn) [A062, Propyl (2S)-4-(9-chloro-7-(2-methoxy-2-oxoethyl)-5,6,7,8-tetrahydroacridine-3-carbonyl)-2-methylpiperazine-1-carboxylate]",6.68
16,"CCCOC(=O)N1CCN(C(=O)c2ccc3c(Cl)c4c(nc3c2)CCC(CC(=O)OC)C4)C[C@H]1C (stereo partly drawn) [A063, Propyl (2R)-4-(9-chloro-7-(2-methoxy-2-oxoethyl)-5,6,7,8-tetrahydroacridine-3-carbonyl)-2-methylpiperazine-1-carboxylate]",6.60
17,"CCCOC(=O)N1CCN(C(=O)c2ccc3c(Cl)c4c(nc3c2)CCCC4)C(C(F)(F)F)C1 (stereo not drawn) [A064, Propyl 4-(9-chloro-5,6,7,8-tetrahydroacridine-3-carbonyl)-3-(trifluoromethyl)piperazine-1-carboxylate]",6.15

# More lines, now with the values ahead:
row,pIC50,Structure (SMILES)
1,6.42,"CCCOC(=O)N1CCN(C(=O)c2ccc3c(Cl)c4c(nc3c2)CCC(CC(=O)OC)C4)CC1 (stereo not drawn) [A034, Propyl 4-(9-chloro-7-(2-methoxy-2-oxoethyl)-5,6,7,8-tetrahydroacridine-3-carbonyl)piperazine-1-carboxylate]"
2,5.09,"CCCOC(=O)N1CCN(C(=O)c2ccc3c(Cl)c4c(nc3c2)CCCC4)CC1(C)C [A035, Propyl 4-(9-chloro-5,6,7,8-tetrahydroacridine-3-carbonyl)-2,2-dimethylpiperazine-1-carboxylate]"
3,6.38,"CCCCOC(=O)N1CCN(C(=O)c2ccc3c(Cl)c4c(nc3c2)CCCC4)CC1 [A038, Butyl 4-(9-chloro-5,6,7,8-tetrahydroacridine-3-carbonyl)piperazine-1-carboxylate]"
4,5.28,"CCCOC(=O)N1CCN(C(=O)c2ccc3c(Cl)c4c(nc3c2)CCCC4)CC1C(=O)OC (stereo not drawn) [A042, 2-Methyl 1-propyl 4-(9-chloro-5,6,7,8-tetrahydroacridine-3-carbonyl)piperazine-1,2-dicarboxylate]"
5,6.21,"CCCOC(=O)N1CCN(C(=O)c2ccc3c(Cl)c4c(nc3c2)CC(C(=O)OC)CC4)CC1 (stereo not drawn) [A044, Methyl 9-chloro-6-(4-(propoxycarbonyl)piperazine-1-carbonyl)-1,2,3,4-tetrahydroacridine-3-carboxylate]"
6,5.92,"CCCOC(=O)N1CCN(C(=O)c2ccc3c(Cl)c4c(nc3c2)CCC(CN)C4)CC1 (stereo not drawn) [A045, Propyl 4-(7-(aminomethyl)-9-chloro-5,6,7,8-tetrahydroacridine-3-carbonyl)piperazine-1-carboxylate]"
7,6.10,"CCCOC(=O)N1CCN(C(=O)c2ccc3c(Cl)c4c(nc3c2)CCC(C#N)C4)CC1 (stereo not drawn) [A046, Propyl 4-(9-chloro-7-cyano-5,6,7,8-tetrahydroacridine-3-carbonyl)piperazine-1-carboxylate]"
8,6.22,"C=CCC1CCc2c(nc3cc(C(=O)N4CCN(C(=O)OCCC)CC4)ccc3c2Cl)C1 (stereo not drawn) [A047, Propyl 4-(6-allyl-9-chloro-5,6,7,8-tetrahydroacridine-3-carbonyl)piperazine-1-carboxylate]"
9,5.21,"CCCOC(=O)N1CCN(C(=O)c2ccc3c(Cl)c4c(nc3c2)CCCC4)CC1C(=O)NC (stereo not drawn) [A048, Propyl 4-(9-chloro-5,6,7,8-tetrahydroacridine-3-carbonyl)-2-(methylcarbamoyl)piperazine-1-carboxylate]"
10,5.19,"CCCNC(=O)N1CCN(C(=O)c2ccc3c(Cl)c4c(nc3c2)CCCC4)CC1 [A049, 4-(9-Chloro-5,6,7,8-tetrahydroacridine-3-carbonyl)-N-propylpiperazine-1-carboxamide]"
11,6.62,"CCCOC(=O)N1CCN(C(=O)c2ccc3c(Cl)c4c(nc3c2)CC(c2ccccn2)CC4)CC1 (stereo not drawn) [A053, Propyl 4-(9-chloro-6-(pyridin-2-yl)-5,6,7,8-tetrahydroacridine-3-carbonyl)piperazine-1-carboxylate]"
12,5.77,"CCCOC(=O)N1CCN(C(=O)c2ccc3c(Cl)c4c(nc3c2)CCCC4)CC1C(N)=O (stereo not drawn) [A056, Propyl 2-carbamoyl-4-(9-chloro-5,6,7,8-tetrahydroacridine-3-carbonyl)piperazine-1-carboxylate]"
13,6.51,"CCCOC(=O)N1CCN(C(=O)c2ccc3c(Cl)c4c(nc3c2)CC(c2cncnc2)CC4)CC1 (stereo not drawn) [A057, Propyl 4-(9-chloro-6-(pyrimidin-5-yl)-5,6,7,8-tetrahydroacridine-3-carbonyl)piperazine-1-carboxylate]"
14,6.72,"CCCOC(=O)N1CCN(C(=O)c2ccc3c(Cl)c4c(nc3c2)CC(c2ccncc2)CC4)CC1 (stereo not drawn) [A058, Propyl 4-(9-chloro-6-(pyridin-4-yl)-5,6,7,8-tetrahydroacridine-3-carbonyl)piperazine-1-carboxylate]"
15,5.64,"CCCOC(=O)N1CCN(C(=O)c2ccc3c(Cl)c4c(nc3c2)CCCC4)C(C(N)=O)C1 (stereo not drawn) [A059, Propyl 3-carbamoyl-4-(9-chloro-5,6,7,8-tetrahydroacridine-3-carbonyl)piperazine-1-carboxylate]"
16,6.72,"CCCOC(=O)N1CCN(C(=O)c2ccc3c(Cl)c4c(nc3c2)CC(CC#N)CC4)CC1 (stereo not drawn) [A065, Propyl 4-(9-chloro-6-(cyanomethyl)-5,6,7,8-tetrahydroacridine-3-carbonyl)piperazine-1-carboxylate]"
